Data set [1] is described as follows: Additive decomposition of peak excitation and emission wavelengths (model coefficients of A and B groups). Particulars: for αi^em: influence of A group on peak emission wavelength; for αi^em / αi^ex: A group 1 as baseline; for αi^ex: influence of A group on peak excitation wavelength. The text has this:
The chemical structure of the styryl library is illustrated in FIG. 3. […] Initial analysis focused on measurements of peak emission and excitation wavelength obtained for all styryl products showing a single, localized peak (there were 256 such compounds for emission wavelength, and 193 compounds for excitation wavelength). […] The wavelength for the styryl compound formed by joining A group i with B group j is denoted as λij (or more specifically, λij^ex for excitation wavelength and λij^em for emission wavelength). The additive model λij=ai+βj+εij was fit to the data using least squares yielding parameters αi^ex, αi^em, βj^ex, and βj^em that quantify the influence of each A and B group on the spectrum of the styryl product. […] (FIGS. 8A-8B). […] The predictions were made ignoring interactions between the two functional moieties in the styryl compound. The predicted values were obtained without bias, by holding out the data point to be predicted when training the model.
In preferred embodiments, using the cross-validation approach disclosed herein, each compound was held out in sequence, the model was trained using the remaining compounds, then the wavelength value for the held-out compound was predicted based on the resulting fitted model. This process produced correlations between measured and predicted values of ρ^em=0.78 (emission) and ρ^ex=0.69 (excitation).
Based on this analysis, the contribution of the A and B functional groups to the fluorescence of the styryl product is quantified using the fitted coefficients αi^ex, βj^ex, […], and βj^em. Since these coefficients are on a scale without origin, in some embodiments, the invention uses the first A group and B group as a baseline, so […], β1^ex=0, and so on. Table 3 contains the model coefficients of all A and B groups for peak excitation and emission wavelength.
Greater values of αi^ex, αi^em, βj^ex, and βj^em indicate greater peak wavelength. Greater values of αi^mito and […] indicate stronger mitochondrial localization. A groups 40 and 41 were not screened for localization. A groups 2, 29, and 33 only formed fluorescent products with a single B group, so were not included in the spectral analysis.
In some embodiments, the wavelength values for peak excitation and emission were fit to the additive model λij=αi+βj+εij, where εij denotes error that is made as small as possible in the fitting process. Using least squares to minimize the function [formula] over all compounds having experimental data yields coefficient estimates αi for each A group and βj for each B group. One set of coefficient estimates is obtained for the excitation values and another set is obtained for the emission values. To predict the wavelength of a new compound formed from A and B groups i* and j* the sum αi*+βj* is used.
In some embodiments, for both the spectral and localization analysis, cross-validation was used to obtain unbiased estimates of the prediction performance. Each compound was held out in sequence, and the coefficients αi and βj were fit to the remaining compounds. These values were then used to form a prediction for the held out compound, then the predicted and experimental values were compared to obtain a measure of the accuracy of prediction. Since the wavelength values are on a continuous scale, the predicted values were compared to the experimental values using Pearson correlation coefficients. The localization values are dichotomous, so the proportion of matching predictions was used to compare predicted and experimental localization values.

Data set [2] deals with mitochondria. Nature of the data set: QSLR factorial logistic regression of mitochondrial localization (affinity coefficients, cross-validated prediction). Also on record: species or system human. Particulars: for αi^mito: influence of A group on mitochondrial localization, greater = stronger; for estimated A group affinity coefficient ai: mitochondrial affinity, ±5 for groups always or never mitochondrial. The text has this:
The first column and first row contain the A group and B group labels. The second column and second row contain the estimated A group and B group affinity coefficients (ai and bj respectively). The interior of the table contains the value sij=ai+bj for each compound (where positive values of sij indicate predicted localization to mitochondria, and negative values of sij indicate predicted localization to a non-mitochondrial compartment). The subscript m indicates experimentally determined mitochondrial localization. The subscript o indicates experimentally determined non-mitochondrial localization. The darkened boxes indicate correctly predicted mitochondrial localizations under cross-validation.
Based on this matrix, factorial logistic regression (See, A. Agresti, Categorical Data Analysis, Wiley [2002]) was used to calculate mitochondrial affinity coefficients (ai and bj) for each A and B moiety. (Table 1). Since it is not necessary to observe all possible pairings between A and B building blocks to estimate the affinity coefficients, the QSLR approach can predict localization of unmeasured styryl molecules based on a minimal set of experimentally-determined localizations (see Methods). The methods of the present invention allow assessment of predictivity using the cross-validation technique by holding out one compound and fitting the affinity coefficients using the remaining compounds, predictivity can be assessed by comparing the actual localization of the held-out compound to its predicted localization. Repeating this for every measured compound in the library yields an error rate for the procedure.
Briefly, this technique assigns quantitative scores to each A group (αi^mito) and to each B group (βj^mito), in such a way that αi^mito+βj^mito is positive for compounds with mitochondrial localization, and is negative for compounds lacking mitochondrial localization. […] In additional embodiments, same analysis can be applied to organelles other than mitochondria, provided there are a sufficient number of localizations to specific non-mitochondrial organelles in the combinatorial library of interest for reliable statistical calculations.
In certain embodiments, the predictive performance of the above method was assessed using a cross-validation approach by calculating the proportion of all compounds that are correctly predicted. For cross-validation, each styryl product was set aside in sequence, and the factorial logistic model was fit to the remaining data. Then the resulting A and B scores for the held-out compound were summed. If the sum was positive, the held-out compound was predicted to be mitochondrial, while if the sum was negative, the held-out compound was predicted to be non-mitochondrial. […] The baseline performance of the method scored 104 correct out of 145, or 72%. This number is highly statistically significant compared to random guessing (p-value ˜10^−7). Thus, across the entire library, A and B moieties appear to contribute to localization in an independent, additive fashion.
In some embodiments, subcellular localization data were converted to binary (0/1) values by assigning a value Gij=1 if compound i,j localized to mitochondria (even if it localized to other […] as well), and assigning Gij=0 if compound i,j localized exclusively to any non-mitochondrial cellular structure. Compounds with no localization were omitted from this part of the analysis. The αi and βj coefficients for A or B groups that are always observed to localize to mitochondria, or that never localize to mitochondria, were set to +/−5, respectively. The binary localization data were analyzed using factorial logistic regression. […]

The source of these data is patent US20070111251A1, “Chemical address tags” (priority 2003, published 2007).

Structures are written as SMILES.

As for `O=CCc1ccccc1` [A group 1], in data set [1], the “αi^em” value is 0.0 nm and the “αi^ex” value is 0.0 nm. Besides, in data set [2], the “αi^mito” value is listed as −0.2 and the “estimated A group affinity coefficient ai” value is −0.2.

With `O=Cc1ccccc1` [A group 2], in data set [2], the “αi^mito” value is listed as 5.0 and the “estimated A group affinity coefficient ai” value is recorded as 5.0.

`O=Cc1ccccc1Br` [A group 3]: in data set [1], the “αi^em” value is 46.3 nm and the “αi^ex” value was 35.7 nm. In data set [2], the “αi^mito” value was 5.0 and the “estimated A group affinity coefficient ai” value is listed as 5.0.

As to `O=Cc1cccc(Br)c1` [A group 4], in data set [1], the “αi^em” value was determined as 23.5 nm and the “αi^ex” value is listed as −34.0 nm. Also, in data set [2], the “αi^mito” value is −5.0 and the “estimated A group affinity coefficient ai” value is given as −5.0.

With `O=Cc1ccc(Br)cc1` [A group 5], in data set [1], the “αi^em” value is listed as 26.7 nm and the “αi^ex” value is −32.3 nm. Moreover, in data set [2], the “αi^mito” value was 5.0 and the “estimated A group affinity coefficient ai” value is reported as 5.0.

For `O=Cc1ccc(Cl)cc1` [A group 6], in data set [1], the “αi^em” value is −9.5 nm and the “αi^ex” value was determined as 4.9 nm. For the same compound, in data set [2], the “αi^mito” value is recorded as 5.0 and the “estimated A group affinity coefficient ai” value is recorded as 5.0.

With `Cc1ccccc1C=O` [A group 7], in data set [1], the “αi^em” value was determined as 38.5 nm and the “αi^ex” value is recorded as −44.1 nm. Further, in data set [2], the “αi^mito” value is 5.0 and the “estimated A group affinity coefficient ai” value was 5.0.

For the compound `Cc1ccc(C=O)cc1` [A group 8], in data set [1], the “αi^em” value was found to be 38.5 nm and the “αi^ex” value was determined as 10.9 nm. In data set [2], the “αi^mito” value is listed as 5.0 and the “estimated A group affinity coefficient ai” value is 5.0.

As to `COc1ccccc1C=O` [A group 9], in data set [1], the “αi^em” value is −17.6 nm and the “αi^ex” value is −36.7 nm. For the same compound, in data set [2], the “αi^mito” value was 5.0 and the “estimated A group affinity coefficient ai” value was 5.0.

As to `COc1ccc(C=O)cc1` [A group 10], in data set [1], the “αi^em” value is −23.7 nm and the “αi^ex” value stood at 8.1 nm. Besides, in data set [2], the “αi^mito” value was 1.3 and the “estimated A group affinity coefficient ai” value is 1.3.

For the compound `COc1ccc(C=O)cc1OC` [A group 11], in data set [1], the “αi^em” value is reported as −26.7 nm and the “αi^ex” value is recorded as −14.3 nm. Moreover, in data set [2], the “αi^mito” value was 5.0 and the “estimated A group affinity coefficient ai” value is on record as 5.0.

In the case of `O=Cc1ccc(OCc2ccccc2)c(OCc2ccccc2)c1` [A group 12], in data set [1], the “αi^em” value is −22.7 nm and the “αi^ex” value is on record as −36.7 nm. Also, in data set [2], the “αi^mito” value is listed as −3.3 and the “estimated A group affinity coefficient ai” value is given as −3.3.

For `COc1cc(C=O)cc(OC)c1OC` [A group 13], in data set [1], the “αi^em” value was 0.2 nm and the “αi^ex” value is listed as −44.2 nm. In data set [2], the “αi^mito” value is given as 5.0 and the “estimated A group affinity coefficient ai” value is recorded as 5.0.

Take `COc1ccc(C=O)c2ccccc12` [A group 14]: in data set [1], the “αi^em” value is given as 0.3 nm and the “αi^ex” value is given as −1.6 nm. Besides, in data set [2], the “αi^mito” value was −1.2 and the “estimated A group affinity coefficient ai” value was −1.2.

`COc1ccc(C=O)cc1O` [A group 15]: in data set [1], the “αi^em” value is recorded as −33.1 nm and the “αi^ex” value is on record as −46.9 nm. In data set [2], the “αi^mito” value is −0.6 and the “estimated A group affinity coefficient ai” value is reported as −0.6.

`O=Cc1ccc(O)cc1` [A group 16]: in data set [1], the “αi^em” value is on record as −24.8 nm and the “αi^ex” value was −36.3 nm. In data set [2], the “αi^mito” value is −1.9 and the “estimated A group affinity coefficient ai” value was −1.9.

For `O=Cc1ccc(-c2ccccc2)cc1` [A group 17], in data set [1], the “influence of group on peak wavelength” value is recorded as “bluer”, the “αi^em” value is on record as −46.6 nm and the “αi^ex” value is −14.3 nm. For the same compound, in data set [2], the “influence of A group on mitochondrial localization” value was “mitochondrial repulsion”, the “αi^mito” value is listed as −5.0 and the “estimated A group affinity coefficient ai” value is listed as −5.0.

In the case of `CC(=O)Nc1ccc(C=O)cc1` [A group 18], in data set [1], the “influence of group on peak wavelength” value was “strongly contribute towards the red end of the spectrum”, the “αi^em” value is recorded as 51.2 nm and the “αi^ex” value was −24.3 nm. Besides, in data set [2], the “αi^mito” value is reported as 0.8 and the “estimated A group affinity coefficient ai” value is 0.8.

For the compound `CN(C)c1ccc(C=O)cc1` [A group 19], in data set [1], the “influence of group on peak wavelength” value is “strongly contribute towards the red end of the spectrum”, the “αi^em” value was 49.6 nm and the “αi^ex” value was 26.0 nm. In data set [2], the “αi^mito” value is recorded as −0.2 and the “estimated A group affinity coefficient ai” value is recorded as −0.2.

Turning to `O=Cc1ccccc1[N+](=O)[O-]` [A group 20], in data set [1], the “influence of group on peak wavelength” value is “the far red shift is not observed”, the “αi^em” value turned out to be 44.5 nm and the “αi^ex” value amounted to 6.5 nm. Further, in data set [2], the “αi^mito” value is on record as −2.7 and the “estimated A group affinity coefficient ai” value was −2.7.

For the compound `O=Cc1cccc([N+](=O)[O-])c1` [A group 21], in data set [1], the “influence of group on peak wavelength” value is recorded as “the far red shift is not observed”, the “αi^em” value is given as 21.6 nm and the “αi^ex” value is −68.0 nm. For the same compound, in data set [2], the “αi^mito” value is 0.8 and the “estimated A group affinity coefficient ai” value is on record as 0.8.

Regarding `O=Cc1ccc([N+](=O)[O-])cc1` [A group 22], in data set [1], the “influence of group on peak wavelength” value was “the far red shift is not observed”, the “αi^em” value is on record as −10.3 nm and the “αi^ex” value is listed as −52.8 nm. For the same compound, in data set [2], the “αi^mito” value is recorded as 5.0 and the “estimated A group affinity coefficient ai” value is 5.0.

With `COc1ccc2ccccc2c1C=O` [A group 23], in data set [1], the “αi^em” value is −10.3 nm and the “αi^ex” value came to 6.1 nm. Besides, in data set [2], the “αi^mito” value is reported as −5.0 and the “estimated A group affinity coefficient ai” value is −5.0.

Regarding `O=Cc1c[nH]c2ccccc12` [A group 24], in data set [1], the “αi^em” value is listed as −24.2 nm and the “αi^ex” value is reported as −7.2 nm. Further, in data set [2], the “αi^mito” value is listed as −1.7 and the “estimated A group affinity coefficient ai” value is −1.7.
